Like-named read-outs stand apart in the source and are kept apart here.
Legend:
[1] = tested on: Candida albicans (IFO 0538); experiment: Antifungal activity against Candida albicans, paper disc growth inhibition zone (Tables 5 and 6); format: cell-based; conditions: 28° C., 2 days incubation; for zone of inhibition at 1000 µg/mL: 48 h, read-out: Inhibition zone diameter
Experimental: The antifungal activities of the compounds (I) were evaluated by the following method: a sheet of filter paper disc (manufactured by Toyo Seisakusho, 8 mm in diameter) soaked in a 1000 μg/ml solution of a compound (I) in methanol was placed on an agar plate, which was incubated at 28° C. for 2 days, and the diameter of the growth inhibition zone around the filter paper disc was measured. The following culture media were used:
A: yeast nitrogen base agar medium
B: yeast nitrogen base agar medium (pH 7.0)

[2] = tested on: Candida albicans; experiment: Infection-preventing effect in experimental infection in mice, Method 1 (Table 7-1); format: in vivo, Crj:CDF1 mice; conditions: given 0 and 2 hours after infection, survival 7 days after infection, total dose
Experimental: (§1) Method 1 (Table 7-1): To 5-week-old Crj:CDF1 mice the minimum lethal dose of Candida albicans was inoculated intravenously. The test drug was given twice 0 and 2 hours after infection. The effectiveness of the drug was expressed in ED50 values calculated by the Reed and Muench method from the survival rate 7 days after infection. The ED50 values were calculated based on the total dose given on the two occasions.

[3] = tested on: Candida albicans; experiment: Infection-preventing effect in experimental infection in mice, Method 2 (Table 7-2); format: in vivo, Crj:CDF1 mice; conditions: po, 168 h, p.o., given just after infection, survival 7 days after infection
Experimental: as §1, with “Method 2” for “Method 1”, “(Table 7-2):” for “(Table 7-1):”, “given just” for “given twice 0 and 2 hours”

[4] = pH 7, B medium (yeast nitrogen base agar, pH 7.0)
[5] = Candida albicans, sc, 168 h, s.c., read-out: ED50
[6] = A medium (yeast nitrogen base agar)
[7] = Candida albicans, po, 168 h, p.o., read-out: ED50

Row | Compound | zone of inhibition at 1000 µg/mL [1, 4] | ED50 [2, 5] | ED50 [3] | other results
1 | C[C@@H](SCc1ncc2cnccn12)[C@](O)(Cn1cncn1)c1ccc(F)cc1F (relative stereo) [Compound 57, (2RS,3RS)-2-(2,4-difluorophenyl)-3-(imidazo[1,5-a]pyradin-3-yl)methylthio-1-(1H-1,2,4-triazol-1-yl)-2-butanol] | 30 mm | 0.5 mg/kg | – | –
2 | C[C@@H](SCc1nccn1C(CF)CF)[C@](O)(Cn1cncn1)c1ccc(F)cc1F (relative stereo) [Compound 59] | 30 mm | 1.4 mg/kg | – | –
3 | CC(n1cncn1)C(O)(CS)c1ccc(F)cc1F (single isomer, unassigned) [Compound 115, 2-(2,4-difluorophenyl)-1-mercapto-3-[(1H)-1,2,4-triazol-1-yl]-2-butanol] | 33 mm | > 4 mg/kg | – | –
4 | CC(n1cncn1)C(O)(CS)c1ccc(F)cc1F (single isomer, unassigned) [Compound 116, 2-(2,4-difluorophenyl)-1-mercapto-3-[(1H)-1,2,4-triazol-1-yl]-2-butanol] | – | – | – | Inhibition zone diameter ([1]; B medium (yeast nitrogen base agar, pH 7.0)): 30 mm; ED50 ([2]; s.c.): > 4.0 mg/kg
5 | OC(CSCCn1cncn1)(Cn1cncn1)c1ccc(F)cc1F (stereo not shown) [Compound 2] | 17 mm | 19.3 mg/kg | – | zone of inhibition at 1000 µg/mL [1, 6]: 18 mm
6 | O=S(=O)(CCn1cncn1)CC(O)(Cn1cncn1)c1ccc(F)cc1F (stereo not shown) [Compound 3] | – | 32.4 mg/kg | – | zone of inhibition at 1000 µg/mL [1, 6]: 13 mm
7 | CC(SCC(O)(Cn1cncn1)c1ccc(F)cc1F)c1ccncc1 (stereo not shown) [Compound 10] | – | 35.4 mg/kg | – | Inhibition zone diameter [1, 6]: 21 mm
8 | C[C@H](S)[C@@](O)(Cn1cncn1)c1ccc(F)cc1F [Compound 42, (2S,3S)-2-(2,4-difluorophenyl)-3-mercapto-1-(1H-1,2,4-triazol-1-yl)-2-butanol] | 34 mm | – | > 4 mg/kg | –
9 | C[C@@H](S)[C@](O)(Cn1cncn1)c1ccc(F)cc1F [Compound 43, (2R,3R)-2-(2,4-difluorophenyl)-3-mercapto-1-(1H-1,2,4-triazol-1-yl)-2-butanol] | 40 mm | 0.18 mg/kg | – | ED50 [2, 7]: 0.18 mg/kg
10 | CC(=O)S[C@H](C)[C@](O)(Cn1cncn1)c1ccc(F)cc1F [Compound 45, (2R,3R)-3-acetylthio-2-(2,4-difluorophenyl)-1-(1H-1,2,4-triazol-1-yl)-2-butanol] | 40 mm | 0.16 mg/kg | – | ED50 [2, 7]: 0.18 mg/kg
11 | CC(C)C(=O)S[C@H](C)[C@](O)(Cn1cncn1)c1ccc(F)cc1F [Compound 62, (2R,3R)-2-(2,4-difluorophenyl)-3-isobutyrylthio-1-(1H-1,2,4-triazol-1-yl)-2-butanol] | 45 mm | 0.5 mg/kg | – | ED50 [2, 7]: 0.35 mg/kg
12 | C[C@@H](SCc1nccn1C)[C@](O)(Cn1cncn1)c1ccc(F)cc1F [Compound 78] | 30 mm | – | 0.5 mg/kg | –
13 | C[C@@H](SCc1cncn1C)[C@](O)(Cn1cncn1)c1ccc(F)cc1F [Compound 91] | 30 mm | – | < 0.25 mg/kg | –
14 | C[C@@H](SCc1ncc2n1CCC2)[C@](O)(Cn1cncn1)c1ccc(F)cc1F [Compound 97] | 27 mm | – | 0.5 mg/kg | –
15 | Cc1csc(CS[C@H](C)[C@](O)(Cn2cncn2)c2ccc(F)cc2F)n1 [Compound 99] | 35 mm | – | 1.4 mg/kg | –
16 | Cc1nc(CS[C@H](C)[C@](O)(Cn2cncn2)c2ccc(F)cc2F)cs1 [Compound 107] | 33 mm | 0.71 mg/kg | 0.39 mg/kg | ED50 [2, 7]: < 0.5 mg/kg
17 | Cc1ncc(CS[C@H](C)[C@](O)(Cn2cncn2)c2ccc(F)cc2F)s1 [Compound 108] | 40 mm | – | 1.4 mg/kg | –
18 | C[C@@H](SCc1nccn1CC(F)F)[C@](O)(Cn1cncn1)c1ccc(F)cc1F [Compound 109] | 28 mm | – | 0.5 mg/kg | –
19 | C[C@@H](SCc1nccn1C1CC1)[C@](O)(Cn1cncn1)c1ccc(F)cc1F [Compound 110] | 40 mm | 0.35 mg/kg | – | ED50 [2, 7]: 0.35 mg/kg

Row | Compound | zone of inhibition at 1000 µg/mL [1, 4] | ED50 [2, 5] | ED50 [3] | other results
20 | Cc1oc(=O)oc1CS[C@H](C)[C@](O)(Cn1cncn1)c1ccc(F)cc1F [Compound 111] | 35 mm | 0.71 mg/kg | – | ED50 [2, 7]: 0.89 mg/kg
21 | C[C@@H](SCc1ncc2cnccn12)[C@](O)(Cn1cncn1)c1ccc(F)cc1F [Compound 112] | 30 mm | – | 0.5 mg/kg | –
22 | C[C@@H](SCc1nncn1C1CC1)[C@](O)(Cn1cncn1)c1ccc(F)cc1F [Compound 114] | 15 mm | – | 0.4 mg/kg | –
23 | C[C@@H](S)[C@@](O)(Cn1cncn1)c1ccc(F)cc1F [Compound 117, (2S,3R)-2-(2,4-difluorophenyl)-3-mercapto-1-(1 H-1,2,4-triazol-1-yl)-2-butanol] | 25 mm | – | > 4 mg/kg | –
24 | C[C@H](S)[C@](O)(Cn1cncn1)c1ccc(F)cc1F [Compound 118, (2R,3S)-2-(2,4-difluorophenyl)-3-mercapto-1-(1H-1,2,4-triazol-1-yl)-2-butanol] | 33 mm | – | 2.8 mg/kg | –
25 | CC(C)(S)C(O)(Cn1cncn1)c1ccc(F)cc1F (stereo not shown) [Compound 119] | 30 mm | – | 0.18 mg/kg | –
26 | OC(Cn1cncn1)(c1ccc(F)cc1F)C1(S)CC1 (stereo not shown) [Compound 120] | 30 mm | – | 0.35 mg/kg | –
27 | C[C@@H](SCc1csc(N)n1)[C@](O)(Cn1cncn1)c1ccc(F)cc1F [Compound 121] | 35 mm | – | 0.5 mg/kg | –
28 | C[C@@H](SCc1csc(C(F)(F)F)n1)[C@](O)(Cn1cncn1)c1ccc(F)cc1F [Compound 122] | 35 mm | – | 0.5 mg/kg | –
29 | C[C@@H](SCc1csc(C2CC2)n1)[C@](O)(Cn1cncn1)c1ccc(F)cc1F [Compound 123] | 35 mm | – | 0.5 mg/kg | –
30 | C[C@@H](SCc1cn2ccncc2n1)[C@](O)(Cn1cncn1)c1ccc(F)cc1F [Compound 124] | 30 mm | – | 0.7 mg/kg | –
31 | C[C@@H](SCc1cn2cccnc2n1)[C@](O)(Cn1cncn1)c1ccc(F)cc1F [Compound 125] | 33 mm | – | 0.5 mg/kg | –
32 | C[C@@H](SCc1ccncn1)[C@](O)(Cn1cncn1)c1ccc(F)cc1F [Compound 126] | 38 mm | – | 2 mg/kg | –
33 | Cc1nccc(CS[C@H](C)[C@](O)(Cn2cncn2)c2ccc(F)cc2F)n1 [Compound 127] | 33 mm | – | 2 mg/kg | –
34 | C[C@@H](SCc1nsc(N)n1)[C@](O)(Cn1cncn1)c1ccc(F)cc1F [Compound 128] | 30 mm | – | 2 mg/kg | –
35 | C[C@@H](SCc1cnc2cccnn12)[C@](O)(Cn1cncn1)c1ccc(F)cc1F [Compound 129] | 35 mm | – | 0.5 mg/kg | –
36 | C[C@@H](SCc1ncc2ncccn12)[C@](O)(Cn1cncn1)c1ccc(F)cc1F [Compound 130] | 35 mm | – | 0.7 mg/kg | –
37 | C[C@@H](SCc1ncc2cccnn12)[C@](O)(Cn1cncn1)c1ccc(F)cc1F [Compound 131] | 40 mm | – | 0.7 mg/kg | –

— US5405861A, “Triazole compounds and antifungal compositions thereof” (Takeda Chemical Industries, Co., Ltd., priority 1989, dated 1995)
